What follows are molecules tested on bovine cardiac myofibrils (assay: Myofibril assay: PK/LDH-coupled steady-state ATPase activity of skinned bovine cardiac myofibrils). Details: Ca2+ activating to 75% of maximal rate.
Assay type: biochemical
In short: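 Steady-state ATPase of detergent-skinned bovine left-ventricular myofibrils (1 mg/mL), PK/LDH-coupled NADH read at 340 nm, in PIPES/MgCl2 buffer pH 6.8 with 50 μM ATP, 0.6 mM EGTA and CaCl2 set for 50% or 75% activation. Inhibition of activity measured.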

`COC(=O)N1CC[C@]2(C1)C(=O)N(c1ccc(C#N)cc1F)CC(=O)N2Cc1ccc(Cl)cc1` [Compound 211, methyl (S)-6-(4-chlorobenzyl)-9-(4-cyano-2-fluorophenyl)-7,10-dioxo-2,6,9-triazaspiro-[4.5]decane-2-carboxylate] and `CCC(=O)N1CC[C@]2(C1)C(=O)N(c1ccc(C#N)cc1F)CC(=O)N2Cc1ccc(Cl)cc1` [Compound 214, (S)-4-(6-(4-chlorobenzyl)-7,10-dioxo-2-propionyl-2,6,9-triazaspiro[4.5]decan-9-yl)-3-fluorobenzonitrile] are within 1.5-fold of each other in “CDMF75 IC15” value: 0.4 µM for the first, 0.5 µM for the second.

Going from `N#Cc1ccc(N2CC(=O)N(Cc3ccc(C(F)(F)F)cc3)[C@]3(CCN(C(=O)C4COC4)C3)C2=O)c(F)c1` [Compound 215, (S)-3-fluoro-4-(2-(oxetane-3-carbonyl)-7,10-dioxo-6-(4-(trifluoromethyl)benzyl)-2,6,9-triazaspiro[4.5]decan-9-yl)benzonitrile] to `N#Cc1ccc(N2CC(=O)N(Cc3ccc(C(F)(F)F)cc3)[C@]3(CCN(C(=O)C4CC4)C3)C2=O)c(F)c1` [Compound 219, (S)-4-(2-(cyclopropane-carbonyl)-7,10-dioxo-6-(4-(trifluoromethyl)benzyl)-2,6,9-triazaspiro[4.5]decan-9-yl)-3-fluorobenzonitrile], the “CDMF75 IC15” value falls from 1.3 µM to 0.4 µM (3.2-fold).

`COC(=O)N1CC[C@]2(C1)C(=O)N(c1ccc(C#N)cc1F)CC(=O)N2Cc1ccc(C(F)(F)F)cc1` [Compound 216, methyl (S)-9-(4-cyano-2-fluorophenyl)-7,10-dioxo-6-(4-(trifluoromethyl)benzyl)-2,6,9-triazaspiro[4.5]decane-2-carboxylate] and `CCC(=O)N1CC[C@]2(C1)C(=O)N(c1ccc(C#N)cc1F)CC(=O)N2Cc1ccc(C(F)(F)F)cc1` [Compound 218, (S)-4-(7,10-dioxo-2-propionyl-6-(4-(trifluoromethyl)benzyl)-2,6,9-triazaspiro[4.5]decan-9-yl)-3-fluorobenzonitrile] are within 1.5-fold of each other in “CDMF75 IC15” value: 0.3 µM for the first, 0.4 µM for the second.

First: N#Cc1ccc(N2CC(=O)N(Cc3ccc(C(F)(F)F)cc3)[C@]3(CCN(C(=O)C4CCC4)C3)C2=O)c(F)c1 [Compound 217, (S)-4-(2-(cyclobutane-carbonyl)-7,10-dioxo-6-(4-(trifluoromethyl)benzyl)-2,6,9-triazaspiro[4.5]decan-9-yl)-3-fluorobenzonitrile]
Second: CC(C)C(=O)N1CC[C@]2(C1)C(=O)N(c1ccc(C#N)cc1F)CC(=O)N2Cc1ccc(C(F)(F)F)cc1 [Compound 223, (S)-3-fluoro-4-(2-isobutyryl-7,10-dioxo-6-(4-(trifluoromethyl)benzyl)-2,6,9-triazaspiro[4.5]decan-9-yl)benzonitrile]
The “CDMF75 IC15” value of the first is 2.6-fold lower: 0.9 µM for the first, 2.3 µM for the second.

Going from `N#Cc1ccc(N2CC(=O)N(Cc3ccc(Cl)cc3)[C@]3(CCN(C=O)C3)C2=O)c(F)c1` [Compound 220, (S)-4-(6-(4-chlorobenzyl)-2-formyl-7,10-dioxo-2,6,9-triazaspiro[4.5]decan-9-yl)-3-fluorobenzonitrile] to `CC(C)C(=O)N1CC[C@]2(C1)C(=O)N(c1ccc(C#N)cc1F)CC(=O)N2Cc1ccc(Cl)cc1` [Compound 221, (S)-4-(6-(4-chlorobenzyl)-2-isobutyryl-7,10-dioxo-2,6,9-triazaspiro[4.5]decan-9-yl)-3-fluorobenzonitrile], the “CDMF75 IC15” value rises from 0.8 µM to 4.1 µM (5.1-fold).

Compared with `CC(=O)N1CC[C@]2(C1)C(=O)N(c1ccc(OC(F)F)cc1)CC(=O)N2Cc1ccc(Cl)cc1` [Compound 224, (S)-2-acetyl-6-(4-chloro-benzyl)-9-(4-(difluoro-methoxy)phenyl)-2,6,9-triazaspiro[4.5]decane-7,10-dione], `COc1ccc(N2CC(=O)N(Cc3ccc(Cl)cc3)[C@]3(CCN(C(C)=O)C3)C2=O)nc1` [Compound 225, (S)-2-acetyl-6-(4-chloro-benzyl)-9-(5-methoxy-pyridin-2-yl)-2,6,9-triazaspiro[4.5]decane-7,10-dione] is 2.4-fold higher in “CDMF75 IC15” value: 12.1 µM for the first, 29.6 µM for the second.

`N#Cc1ccc(N2CC(=O)N(Cc3ccc(Cl)cc3)[C@]3(C[C@@H](C(N)=O)C3)C2=O)c(F)c1` [Compound 266, (2s,4s)-5-(4-chlorobenzyl)-8-(4-cyano-2-fluorophenyl)-6,9-dioxo-5,8-diazaspiro-[3.5]nonane-2-carboxamide] and `N#Cc1ccc(N2CC(=O)N(Cc3ccc(C(F)(F)F)cc3)C3(COC3)C2=O)c(F)c1` [Compound 280, 4-(6,9-dioxo-5-(4-(trifluoromethyl)benzyl)-2-oxa-5,8-diazaspiro[3.5]-nonan-8-yl)-3-fluorobenzonitrile] are within 1.5-fold of each other in “CDMF75 IC15” value: 0.7 µM for the first, 0.9 µM for the second.

Compared with `CC1(CO)C(=O)N(c2ccc(C#N)cc2F)CC(=O)N1Cc1ccc(C(F)(F)F)cc1` (stereo not shown) [Compound 269, 3-fluoro-4-(3-(hydroxy-methyl)-3-methyl-2,5-dioxo-4-(4-(trifluoro-methyl)benzyl)piperazin-1-yl)benzonitrile], `CC1(CO)C(=O)N(c2ccc(Cl)cc2F)CC(=O)N1Cc1ccc(C(F)(F)F)cc1` (stereo not shown) [Compound 270, 1-(4-chloro-2-fluorophenyl)-3-(hydroxymethyl)-3-methyl-4-(4-(trifluoro-methyl)benzyl)piperazine-2,5-dione] is 1.6-fold higher in “CDMF75 IC15” value: 1.2 µM for the first, 1.9 µM for the second.

`O=C1CN(c2ccc(Cl)cc2F)C(=O)C2(CC2)N1Cc1ccc(C(F)(F)F)cc1` [Compound 271, 7-(4-chloro-2-fluorophenyl)-4-(4-(trifluoromethyl)-benzyl)-4,7-diazaspiro-[2.5]octane-5,8-dione] and `O=C1CN(c2ccc(Cl)cc2F)C(=O)C2(CCC2)N1Cc1ccc(C(F)(F)F)cc1` [Compound 272, 8-(4-chloro-2-fluorophenyl)-5-(4-(trifluoromethyl)-benzyl)-5,8-diazaspiro-[3.5]nonane-6,9-dione] are within 1.5-fold of each other in “CDMF75 IC15” value: 0.6 µM for the first, 0.5 µM for the second.

Going from `CC1(C)C(=O)N(c2ccc(Cl)cc2F)CC(=O)N1Cc1ccc(C(F)(F)F)cc1` [Compound 273, 1-(4-chloro-2-fluorophenyl)-3,3-dimethyl-4-(4-(trifluoromethyl)benzyl)-piperazine-2,5-dione] to `CC1(C)C(=O)N(c2ccc(C#N)cc2F)CC(=O)N1Cc1ccc(C(F)(F)F)cc1` [Compound 279, 4-(3,3-dimethyl-2,5-dioxo-4-(4-(trifluoromethyl)-benzyl)piperazin-1-yl)-3-fluorobenzonitrile], the “CDMF75 IC15” value falls from 1.8 µM to 1.2 µM (1.5-fold).

`O=C1CN(c2ccc(Cl)cc2F)C(=O)C2(COC2)N1Cc1ccc(C(F)(F)F)cc1` [Compound 274, 8-(4-chloro-2-fluorophenyl)-5-(4-(trifluoromethyl)-benzyl)-2-oxa-5,8-diazaspiro[3.5]nonane-6,9-dione] and `N#Cc1ccc(N2CC(=O)N(Cc3ccc(C(F)(F)F)cc3)C3(CCOC3)C2=O)c(F)c1` (stereo not shown) [Compound 286, 4-(7,10-dioxo-6-(4-(trifluoromethyl)benzyl)-2-oxa-6,9-diazaspiro[4.5]decan-9-yl)-3-fluorobenzonitrile] are within 1.5-fold of each other in “CDMF75 IC15” value: 1.0 µM for the first, 0.7 µM for the second.

First: C[C@@H]1C(=O)N(c2ccc(Cl)cc2F)CC(=O)N1Cc1ccc(C(F)(F)F)cc1 [Compound 275, (R)-1-(4-chloro-2-fluoro-phenyl)-3-methyl-4-(4-(trifluoromethyl)benzyl)-piperazine-2,5-dione]
Second: C[C@H]1C(=O)N(c2ccc(Cl)cc2F)CC(=O)N1Cc1ccc(C(F)(F)F)cc1 [Compound 276, (S)-1-(4-chloro-2-fluoro-phenyl)-3-methyl-4-(4-(trifluoromethyl)benzyl)-piperazine-2,5-dione]
The “CDMF75 IC15” value of the first is 2-fold higher: 6.0 µM for the first, 3.0 µM for the second.

Compared with `O=C1CN(c2ccc(Cl)cc2F)C(=O)CN1Cc1ccc(C(F)(F)F)cc1` [Compound 277, 1-(4-chloro-2-fluorophenyl)-4-(4-(trifluoromethyl)-benzyl)piperazine-2,5-dione], `O=C1C(C2COC2)N(Cc2ccc(C(F)(F)F)cc2)C(=O)CN1c1ccc(Cl)cc1F` (stereo not shown) [Compound 281, 1-(4-chloro-2-fluorophenyl)-3-(oxetan-3-yl)-4-(4-(trifluoromethyl)benzyl)-piperazine-2,5-dione] is 7.6-fold lower in “CDMF75 IC15” value: 32.7 µM for the first, 4.3 µM for the second.

Going from `N#Cc1ccc(N2CC(=O)N(Cc3ccc(C(F)(F)F)cc3)C(C3COC3)C2=O)c(F)c1` (stereo not shown) [Compound 282, 3-fluoro-4-(3-(oxetan-3-yl)-2,5-dioxo-4-(4-(trifluoromethyl)benzyl)-piperazin-1-yl)benzonitrile] to `N#Cc1ccc(N2CC(=O)N(Cc3ccc(C(F)(F)F)cc3)[C@@H](C3CCC3)C2=O)c(F)c1` [Compound 284, (S)-4-(3-cyclobutyl-2,5-dioxo-4-(4-(trifluoromethyl)benzyl)piperazin-1-yl)-3-fluorobenzonitrile], the “CDMF75 IC15” value falls from 3.8 µM to 0.5 µM (7.6-fold).

Compared with `CC(C)[C@H]1C(=O)N(c2ccc(C#N)cc2F)CC(=O)N1Cc1ccc(C(F)(F)F)cc1` [Compound 283, (S)-3-fluoro-4-(3-isopropyl-2,5-dioxo-4-(4-(trifluoromethyl)benzyl)-piperazin-1-yl)benzonitrile], `N#Cc1ccc(N2CC(=O)N(Cc3ccc(C(F)(F)F)cc3)[C@@H](CO)C2=O)c(F)c1` [Compound 287, (S)-3-fluoro-4-(3-(hydroxymethyl)-2,5-dioxo-4-(4-(trifluoromethyl)-benzyl)piperazin-1-yl)-benzonitrile] is 5.3-fold higher in “CDMF75 IC15” value: 0.6 µM for the first, 3.2 µM for the second.

For `CC(C)(C)OC[C@H]1C(=O)N(c2ccc(C#N)cc2F)CC(=O)N1Cc1ccc(C(F)(F)F)cc1` [Compound 285, (S)-4-(3-(tert-butoxymethyl)-2,5-dioxo-4-(4-(trifluoro-methyl)benzyl)piperazin-1-yl)-3-fluorobenzonitrile], the “CDMF75 IC15” value was 8.3 µM.
